Legend:
[1] = test system: clinical isolates of T. rubrum (14-01, 14-02, 14-03, 13-04); assay: Inhibition of growth of clinical isolates of T. rubrum (FIG. 2); assay type: cell-based, Trichophyton rubrum; conditions: all four clinical isolates
Procedure: (§1) FIG. 2(A) is a graphical representations showing the effect of the plant defensins NaD1 (dashed line) and HXL008 (solid line) on the growth of clinical isolate 14-01 of Trichophyton rubrum in vitro. Fungal growth was measured by the increase in optical density at 595 nm (A595) achieved 72 hours after inoculation of the growth medium and is plotted as a percentage of growth relative to a no-protein control (vertical axis) versus protein concentration (μg/mL, horizontal axis).
as §1, with “2(B)” for “2(A)”, “representation” for “representations”, “14-02” for “14-01”, “axis). […]” for “axis).”
Antifungal assays are conducted in 96 well microtitre plates essentially as herein described. […] Fungal growth is assayed by measuring optical density at 595 nm (A595) using a microtitre plate reader (SpectraMax Pro M2; Molecular Devices. Growth is allowed to proceed until the optical density (OD) of the fungus in the absence of any test defensin reached an OD of 0.2. Each test is performed in duplicate.

C. tropicalis = assay: Inhibition of growth of C. tropicalis, Example 2 antifungal assay; assay type: cell-based; conditions: ½ strength PDB, 30° C., A595
Procedure: (§2) The inhibitory effects of the plant defensins on the growth of Candida albicans, Aspergillus fumigatus (obtained from the National Mycology Reference Centre, South Australia Pathology at the Women's and Children's Hospital, Adelaide, Australia), C. glabrata, C. tropicalis, A. flavus, A. niger, A. fumigants, Cryptococcus neoformans and C. gattii (obtained from Dee Carter, University of Sydney, New South Wales, Australia) are measured essentially as described by Broekaert et al. (1990) FEMS Microbiol Lett 69:55-59.
(§3) Spores of A. flavus. A. niger and A. fumigatus are isolated from sporulating fungus growing on ½ strength Sabouraud dextrose agar. Spores were removed from the plates by the addition of ½ strength potato dextrose broth (PDB). C. albicans, C. glabrata, C. tropicalis, C. neoformans and C. gattii cells are grown in Yeast Peptone Broth (YPD) for 16 h. Spore and cell concentrations are measured using a hemocytometer.
(§4) Antifungal assays are conducted in 96 well microtitre plates essentially as herein described. Wells are loaded with 20 μL of filter sterilized (0.22 μm syringe filter, Millipore) defensin (10× stock for each final concentration) or water and 80 μL of 5×10^4 spores/mL (A. flavus, A. niger, A. fumigatus), 5,000 cells/mL (C. albicans, C. glabrata, C. tropicalis) or 1×10^6 cells/mL (C. neoformans, C. gattii) in ½ strength PDB. The plates are incubated at 30° C. Fungal growth is assayed by measuring optical density at 595 nm (A595) using a microtitre plate reader (SpectraMax Pro M2; Molecular Devices. Growth is allowed to proceed until the optical density (OD) of the fungus in the absence of any test defensin reached an OD of 0.2. Each test is performed in duplicate.

C. neoformans = assay: Inhibition of growth of Cryptococcus neoformans, Example 2 antifungal assay; assay type: cell-based; conditions: ½ strength PDB, 30° C., A595
Procedure: as §2, §3, §4

C. gattii = assay: Inhibition of growth of C. gattii, Example 2 antifungal assay; assay type: cell-based; conditions: ½ strength PDB, 30° C., A595
Procedure: as §2, §3, §4

B. subtilis = assay: Inhibition of the growth of Bacillus subtilis (OD595, 18 hours); assay type: cell-based; conditions: at the concentrations tested (0.3125-20 μM)
Procedure: A single E. coli or B. subtilis colony was used to inoculate 5 ml of Luria-Bertani media and grown overnight at 37° C. The following day, the optical density of the culture was measured and the bacteria diluted to an optical density at 600 nm (OD600) of 0.01 in Mueller-Hinton Broth. Diluted E. coli or B. subtilis were added to 96-well plates with defensins at concentrations of 20 μM, 10 μM, 5 μM, 2.5 μM, 1.25 μM, 0.625 μM or 0.3125 μM. Plates were read at OD595 to obtain time zero data points. Plates were incubated at 37° C. for 18 hours before reading again at OD595 to assess the amount of bacterial growth.

Substance: HXL008: Class I plant defensin from Picramnia pentandra (KVCTKPSKFFKGLCGTDGACTTACRKEGLHSGYCQLKGFLNSVCVCRKHC; HXL008 Picramnia pentandra)
- Growth inhibition of T. rubrum clinical isolates compared with NaD1 [1]: inhibited growth at a lower concentration than NaD1
- IC50 against C. tropicalis (C. tropicalis): 7 µg/mL
- IC50 against C. neoformans (C. neoformans): 2.5 µg/mL
- IC50 against C. gattii (C. gattii): 12 µg/mL
- Inhibition of growth of B. subtilis (B. subtilis): did not inhibit the growth
